Source: patent publication US12030878B2 (BRISTOL-MYERS SQUIBB COMPANY, priority 2017, dated 2024)

Legend:
Type in all cases: cell-based
human TLR9 = target: T1, human TLR9 (Homo sapiens, UniProt Q9NR96); assay: TLR9 inhibition reporter assay (HEK-Blue SEAP); details: HEK-Blue cells overexpressing human TLR9, stimulated with ODN2006 5 nM, 22 hour incubation
T1 construct: host or cells: HEK-Blue cells
T1 sequence (Q9NR96 26-1032): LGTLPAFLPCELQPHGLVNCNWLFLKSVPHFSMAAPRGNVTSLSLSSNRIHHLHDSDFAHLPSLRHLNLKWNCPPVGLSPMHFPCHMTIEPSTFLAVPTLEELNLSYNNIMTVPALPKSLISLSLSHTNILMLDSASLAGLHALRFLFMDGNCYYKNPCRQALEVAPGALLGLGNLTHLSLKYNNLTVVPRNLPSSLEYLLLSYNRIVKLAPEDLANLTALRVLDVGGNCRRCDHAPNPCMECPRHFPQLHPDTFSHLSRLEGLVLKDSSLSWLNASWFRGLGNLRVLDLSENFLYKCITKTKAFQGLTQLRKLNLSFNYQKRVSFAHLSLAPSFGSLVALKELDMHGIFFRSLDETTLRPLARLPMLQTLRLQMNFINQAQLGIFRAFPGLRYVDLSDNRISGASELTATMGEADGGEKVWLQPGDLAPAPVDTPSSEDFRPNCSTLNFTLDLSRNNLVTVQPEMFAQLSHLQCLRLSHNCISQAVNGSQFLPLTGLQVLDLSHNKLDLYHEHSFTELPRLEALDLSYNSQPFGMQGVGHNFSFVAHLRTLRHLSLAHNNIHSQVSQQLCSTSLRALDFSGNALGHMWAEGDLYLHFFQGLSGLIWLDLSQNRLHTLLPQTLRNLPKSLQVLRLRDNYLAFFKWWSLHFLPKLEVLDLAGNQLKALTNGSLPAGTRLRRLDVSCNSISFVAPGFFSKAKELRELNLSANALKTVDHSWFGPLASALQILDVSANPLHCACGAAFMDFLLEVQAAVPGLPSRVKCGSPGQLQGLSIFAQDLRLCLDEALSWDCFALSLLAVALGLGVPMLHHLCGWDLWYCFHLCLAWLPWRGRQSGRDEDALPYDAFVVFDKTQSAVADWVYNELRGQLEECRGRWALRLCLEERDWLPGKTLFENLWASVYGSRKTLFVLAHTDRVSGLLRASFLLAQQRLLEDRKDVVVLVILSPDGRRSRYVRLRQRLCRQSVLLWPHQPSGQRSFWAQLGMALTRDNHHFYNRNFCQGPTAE
How it was run: (§1)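 Test compounds, final 0.05 nM–50 μM, pre-treat HEK-Blue human TLR7, TLR8 or TLR9 reporter cells before agonist addition (TLR8 R848 15.9 μM; TLR7 gardiquimod 7.5 μM; TLR9 ODN2006 5 nM). Incubation runs 22 h, 37 °C. SEAP detection gives percent inhibition against DMSO and reference-inhibitor controls.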

human TLR8 = target: T2, human TLR8 (Homo sapiens, UniProt Q9NR97); assay: TLR8 inhibition reporter assay (HEK-Blue SEAP); details: HEK-Blue cells overexpressing human TLR8, stimulated with R848 15.9 μM, 22 hour incubation
T2 construct: host or cells: HEK-Blue cells
T2 sequence (Q9NR97 27-1041): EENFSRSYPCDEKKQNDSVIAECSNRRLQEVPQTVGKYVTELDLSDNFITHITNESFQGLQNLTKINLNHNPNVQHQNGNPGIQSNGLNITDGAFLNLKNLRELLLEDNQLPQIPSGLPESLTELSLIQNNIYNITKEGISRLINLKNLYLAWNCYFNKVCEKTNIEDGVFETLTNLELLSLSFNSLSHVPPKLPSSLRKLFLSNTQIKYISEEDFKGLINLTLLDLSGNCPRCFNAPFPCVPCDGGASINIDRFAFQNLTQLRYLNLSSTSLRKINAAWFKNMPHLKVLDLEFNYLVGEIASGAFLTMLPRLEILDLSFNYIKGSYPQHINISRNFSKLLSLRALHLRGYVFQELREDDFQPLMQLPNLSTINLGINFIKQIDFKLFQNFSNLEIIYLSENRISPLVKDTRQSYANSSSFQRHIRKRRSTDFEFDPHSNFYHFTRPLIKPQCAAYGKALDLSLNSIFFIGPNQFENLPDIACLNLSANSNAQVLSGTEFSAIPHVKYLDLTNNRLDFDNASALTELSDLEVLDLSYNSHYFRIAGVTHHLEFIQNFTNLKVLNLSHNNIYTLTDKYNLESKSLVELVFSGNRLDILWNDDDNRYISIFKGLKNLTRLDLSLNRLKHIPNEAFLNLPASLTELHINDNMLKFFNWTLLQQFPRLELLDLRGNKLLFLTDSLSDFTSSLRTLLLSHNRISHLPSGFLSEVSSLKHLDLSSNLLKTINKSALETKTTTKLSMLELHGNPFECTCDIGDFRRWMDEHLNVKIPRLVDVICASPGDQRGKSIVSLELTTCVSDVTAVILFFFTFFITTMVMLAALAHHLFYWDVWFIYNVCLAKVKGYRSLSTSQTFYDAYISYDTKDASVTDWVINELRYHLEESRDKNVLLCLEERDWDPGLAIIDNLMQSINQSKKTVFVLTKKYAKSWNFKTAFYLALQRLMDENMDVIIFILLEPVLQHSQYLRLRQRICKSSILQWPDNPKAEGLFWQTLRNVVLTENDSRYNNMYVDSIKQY
How it was run: as §1

human TLR7 = target: T3, human TLR7 (Homo sapiens, UniProt Q9NYK1); assay: TLR7 inhibition reporter assay (HEK-Blue SEAP); details: HEK-Blue cells overexpressing human TLR7, stimulated with gardiquimod 7.5 μM, 22 hour incubation
T3 construct: host or cells: HEK-Blue cells
T3 sequence (Q9NYK1 27-1049): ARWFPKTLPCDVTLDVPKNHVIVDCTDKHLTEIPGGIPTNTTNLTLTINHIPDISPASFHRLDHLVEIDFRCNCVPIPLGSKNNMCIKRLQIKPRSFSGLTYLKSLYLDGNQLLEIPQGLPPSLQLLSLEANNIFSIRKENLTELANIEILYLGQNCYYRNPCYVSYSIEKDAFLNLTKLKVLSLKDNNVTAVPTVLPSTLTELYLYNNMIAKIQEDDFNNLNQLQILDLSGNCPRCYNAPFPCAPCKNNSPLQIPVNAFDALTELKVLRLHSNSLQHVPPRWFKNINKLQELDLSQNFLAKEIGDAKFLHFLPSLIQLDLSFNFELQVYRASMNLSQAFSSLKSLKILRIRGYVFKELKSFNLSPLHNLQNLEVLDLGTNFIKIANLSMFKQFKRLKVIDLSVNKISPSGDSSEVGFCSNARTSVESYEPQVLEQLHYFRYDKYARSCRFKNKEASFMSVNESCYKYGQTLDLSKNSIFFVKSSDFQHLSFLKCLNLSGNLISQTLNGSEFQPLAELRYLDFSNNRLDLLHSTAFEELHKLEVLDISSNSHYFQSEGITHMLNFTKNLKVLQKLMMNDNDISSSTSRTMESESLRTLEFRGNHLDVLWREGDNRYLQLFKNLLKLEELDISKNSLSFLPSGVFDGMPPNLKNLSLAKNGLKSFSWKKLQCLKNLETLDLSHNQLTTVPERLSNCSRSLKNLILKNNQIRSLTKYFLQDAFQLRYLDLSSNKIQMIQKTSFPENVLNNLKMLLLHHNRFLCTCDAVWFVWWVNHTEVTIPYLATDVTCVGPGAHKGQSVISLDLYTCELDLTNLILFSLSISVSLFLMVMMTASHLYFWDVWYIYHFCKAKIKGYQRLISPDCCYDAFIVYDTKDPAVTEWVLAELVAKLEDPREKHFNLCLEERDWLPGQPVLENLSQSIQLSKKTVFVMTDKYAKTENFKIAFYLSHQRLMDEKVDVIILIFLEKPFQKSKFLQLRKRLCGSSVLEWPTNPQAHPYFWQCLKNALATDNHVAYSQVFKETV
How it was run: as §1

Row | Compound | IC50 (human TLR9) | IC50 (human TLR8) | IC50 (human TLR7)
1 | COc1ccc(-c2[nH]c3ccc(OCC(=O)N4CCC[C@H](N)C4)cc3c2C(C)C)cc1OC [Example 120, (S)-1-(3-aminopiperidin-1-yl)-2-((2-(3,4-dimethoxyphenyl)-3-isopropyl-1H-indol-5-yl)oxy)ethan-1-one] | 2.66 µM | 0.0469 µM | 0.0955 µM
2 | COc1ccc(-c2[nH]c3ccc(OCC(=O)NCC4CCCCN4)cc3c2C(C)C)cc1OC (stereo not drawn) [Example 126, 2-((2-(3,4-dimethoxyphenyl)-3-isopropyl-1H-indol-5-yl)oxy)-N-(piperidin-2-ylmethyl)acetamide] | 1.9 µM | 0.0128 µM | 0.111 µM
3 | Cc1cc(-c2[nH]c3ccc(OC4CCNCC4)cc3c2C(C)C)cc(C)n1 [Example 1, 2-(2,6-dimethylpyridin-4-yl)-3-isopropyl-5-(piperidin-4-yloxy)-1H-indole] | 0.241 µM | 0.0021 µM | 0.0029 µM
4 | Cc1cc(-c2[nH]c3ccc(OCC(=O)N4CC5CNCC5C4)cc3c2C(C)C)ccn1 (stereo not drawn) [Example 145, 1-(hexahydropyrrolo[3,4-c]pyrrol-2(H)-yl)-2-((3-isopropyl-2-(2-methylpyridin-4-yl)-1H-indol-5-yl)oxy)ethan-1-one] | 0.26 µM | 0.137 µM | 0.315 µM
5 | CCc1c(-c2ccnc(C)c2)[nH]c2ccc(OC3CCN(C)CC3)cc12 [Example 189, 3-ethyl-5-((1-methylpiperidin-4-yl)oxy)-2-(2-methylpyridin-4-yl)-1H-indole] | 1.08 µM | 0.0065 µM | 0.166 µM
6 | CCc1c(-c2ccnc(C)c2)[nH]c2ccc(OCCN3CCCC3)cc12 [Example 192, 3-ethyl-2-(2-methylpyridin-4-yl)-5-(2-(pyrrolidin-1-yl)ethoxy)-H-indole] | 0.774 µM | 0.0508 µM | 1.03 µM
7 | Cc1c(-c2[nH]c3ccc(OC4CCN(C(C)C)CC4)cc3c2C(C)C)cn(C)c(=O)c1Cl [Example 45] | 2.2 µM | 0.0022 µM | 0.0096 µM
8 | CCc1c(-c2ccnc(C)c2)[nH]c2ccc(OCC3CCNCC3)cc12 [Example 161, 3-ethyl-2-(2-methylpyridin-4-yl)-5-(piperidin-4-ylmethoxy)-1H-indole] | 0.218 µM | 0.0042 µM | 0.022 µM
9 | Cc1cc(-c2[nH]c3ccc(OC4CCN(C(=O)CN(C)C)CC4)cc3c2C(C)C)cn2ncnc12 [Example 101, 2-(dimethylamino)-1-(4-((3-isopropyl-2-(8-methyl-[1,2,4]triazolo[1,5-a]pyridin-6-yl)-1H-indol-5-yl)oxy)piperidin-1-yl)ethan-1-one] | 9.75 µM | 0.0359 µM | 0.0023 µM
10 | Cc1cc(-c2[nH]c3ccc(OC4CCN(CCCC(F)(F)F)CC4)cc3c2C(C)C)cn(C)c1=O [Example 78, 5-(3-isopropyl-5-((1-(4,4,4-trifluorobutyl)piperidin-4-yl)oxy)-1H-indol-2-yl)-1,3-dimethylpyridin-2(1H)-one] | 6.31 µM | 0.0011 µM | 0.0109 µM
11 | CNCCOc1ccc2[nH]c(-c3ccnc(C)c3)c(C(C)C)c2c1 [Example 172, 2-((3-isopropyl-2-(2-methylpyridin-4-yl)-1H-indol-5-yl)oxy)-N-methylethan-1-amine] | 3.12 µM | 0.0127 µM | 0.119 µM
12 | COc1ccc(-c2[nH]c3ccc(OCC(=O)N[C@@H]4CCNC4)cc3c2C(C)C)cc1OC [Example 135, (R)-2-((2-(3,4-dimethoxyphenyl)-3-isopropyl-1H-indol-5-yl)oxy)-N-(pyrrolidin-3-yl)acetamide] | 1.82 µM | 0.0241 µM | 0.185 µM
13 | Cc1cc(-c2[nH]c3ccc(OC4CCCNC4)cc3c2C(C)C)ccn1 (stereo not drawn) [Example 177, 3-isopropyl-2-(2-methylpyridin-4-yl)-5-(piperidin-3-yloxy)-1H-indole] | 1.29 µM | 0.0334 µM | 0.0278 µM
14 | COc1ccc(-c2[nH]c3ccc(OCC(=O)N4CCCC(CCN)C4)cc3c2C(C)C)cc1OC (stereo not drawn) [Example 122, 1-(3-(2-aminoethyl)piperidin-1-yl)-2-((2-(3,4-dimethoxyphenyl)-3-isopropyl-1H-indol-5-yl)oxy)ethan-1-one] | 1.01 µM | 0.113 µM | 0.328 µM
15 | Cc1cc(-c2[nH]c3ccc(OC4CCN(CC(C)O)CC4)cc3c2C(C)C)cc(C)n1 (stereo not drawn) [Example 69, 1-(4-((2-(2,6-dimethylpyridin-4-yl)-3-isopropyl-1H-indol-5-yl)oxy)piperidin-1-yl) propan-2-ol] | 0.733 µM | 0.0024 µM | 0.0056 µM
16 | CCCN1CCC(Oc2ccc3[nH]c(-c4cn5cnnc5c(C)c4C)c(C(C)C)c3c2)CC1 [Example 63, 6-(3-isopropyl-5-((1-propylpiperidin-4-yl)oxy)-1H-indol-2-yl)-7,8-dimethyl-[1,2,4]triazolo[4,3-a]pyridine] | 2.19 µM | 0.0025 µM | 0.0021 µM
